The text below walks through data of patent publication US11970474B2, “Substituted benzodiazoles and use thereof in therapy” (THOMAS HELLEDAYS STIFTELSE FÖR MEDICINSK FORSKNING, priority 2018, dated 2024).

One experiment concerns A498. Put plainly: Cell viability assay (resazurin). The class given is cell-based. As to conditions: Homo sapiens, 120 h, Cancer, Renal carcinoma, five day incubation. On the procedure:
(§1) A dilution series of compound or vehicle are transferred to 96-well plates. Cells are seeded into the plate (500-10,000 cells/well) in suitable media and incubated for five days in 5% CO2 at 37° C. Thereafter, resazurin (diluted in suitable medium or PBS) are added to a final concentration 10 μg/ml resazurin at 37° C. for 2-4 hours before measuring the fluorescence (Ex544/Em590), essentially as described (Riss, Terry L. et al., “Cell Viability Assays.” In Assay Guidance Manual, ed. G. Sitta Sittampalam, et al. Bethesda (Md.): Eli Lilly & Company and the National Center for Advancing Translational Sciences (2004) http://www.ncbi.nlm.nih.gov/books/NBK144065/).
(§2) The compounds to be tested are nano-dispensed in duplicate in 11 concentrations, directly in 384-well cell plates, with a final DMSO concentration<1%. Cells are seeded in cell plates, pre-dispensed with compounds (200-2500 cells/well in 50 μl). After three or five days culture in 5% CO2, 37° C., resazurin diluted in PBS is added, 10 μl/well, to a final concentration of 10 μg/ml and cells are incubated 2-4 hours before measuring fluorescence (Ex544/Em590), as described (ibid.). Results obtained for selected example compounds described herein on cancer- and non-transformed cell lines are provided in the table below (Table 3) and summarized in FIG. 1. Where indicated, combination indexes was measured with CompuSyn software (www.compusyn.com) by the method of Chou-Talalay (Chou, Ting-Chao., Cancer Research, 70(2), 440-46 (2010)).

In the next experiment the test system is Daudi. The experiment can be described thus: Cell viability assay (resazurin). To be noted: Homo sapiens, 120 h, Cancer, Burkitt's Lymphoma, five day incubation. In kind it is cell-based. On the procedure:
as §1, §2
For orientation: Resazurin is reduced to fluorescent resorufin, in cell work by metabolically active cells.

The test system of another experiment is LCL#2. Put plainly: Cell viability assay (resazurin). In kind it is cell-based. To be noted: 120 h, Normal, Epstein-Barr-virus-transformed lymphoblastoid cell lines, five day incubation. As to the method: as §1, §2
The subject of the next experiment is M059J. The experiment can be described thus: Cell viability assay (resazurin). In kind it is cell-based. To be noted: Homo sapiens, 120 h, Cancer, Malignant Glioblastoma, five day incubation. On the procedure: as §1, §2
For a further experiment, the system named is Raji. Put plainly: Cell viability assay (resazurin). In kind it is cell-based. As to conditions: Homo sapiens, 120 h, Cancer, Burkitt's Lymphoma, five day incubation. On the procedure: as §1, §2
In another experiment the test system is MEF Ogg1 (−/−). Put plainly: Cell viability assay (resazurin). In kind it is cell-based. As to conditions: 120 h, Normal, mouse embryonic fibroblast, five day incubation. As to the method: A dilution series of compound or vehicle are transferred to 96-well plates. Cells are seeded into the plate (500-10,000 cells/well) in suitable media and incubated for five days in 5% CO2 at 37° C.
The compounds to be tested are nano-dispensed in duplicate in 11 concentrations, directly in 384-well cell plates, with a final DMSO concentration<1%.

The test system of the next experiment is MLE12 cells. The experiment can be described thus: Cell viability assay in MLE12 cells (resazurin). In kind it is cell-based, mouse. As to conditions: Mus musculus, MLE12, 24 h, TNF-α 20 ng/ml, resazurin added after 24 hours culture. Summed up:
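MLE12 cells (7500 cells/well) were seeded onto 11-point duplicate compound dose-responses, with TNF-α (final 20 ng/ml) added after 1 hour at 37° C. After 24 hours, resazurin was added for 6 hours and resorufin fluorescence read (ex544 nm/em595 nm). EC50 values were calculated by curve fitting.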

Another experiment has as its system CCL2. The experiment can be described thus: Mouse CCL2 assay in MLE12 cells. In kind it is cell-based. To be noted: Mus musculus, MLE12, 30 h, MLE12 cells; TNF-α 20 ng/ml; supernatant after 30 hours; HTRF; read-out: CCL2 (EC50). A digest of the protocol:
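CCL2 in supernatants was quantified by two-antibody HTRF FRET, read at 620 and 665 nm after overnight RT incubation, with IC50 derived from delta ratios. Cells were SV40-transformed mouse MLE12, treated with duplicate 6-point compound series for 1 h before 30 h TNF-α (20 ng/ml final) stimulation.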

SMILES strings stand for the structures.

Turning to `Cc1cc(NC(=O)N2CCC(n3c(=O)[nH]c4c(Br)cccc43)CC2)ccc1I` [Example 50, 4-(4-Bromo-2-oxo-2,3-dihydro-1H-1,3-benzodiazol-1-yl)-N-(4-iodo-3-methylphenyl)piperidine-1-carboxamide], the EC50 in the experiment on A498 stood at 35 µM; in the experiment with Daudi, 12 µM; in the experiment on LCL#2, 32 µM; in the experiment on M059J, 29 µM; in the experiment with Raji, 23 µM; with MEF Ogg1 (−/−), 34 µM. Also, in the experiment on CCL2, the 50% effective concentration (EC50) amounted to 15.4 µM. Also, the IC50 in the experiment with MLE12 cells turned out to be 7.23 µM.
Turning to `O=C(Nc1ccc(Cl)c(Cl)c1)N1CCC(n2c(=O)[nH]c3c(-c4ccc(CO)nc4)cccc32)CC1` [Example 28, N-(3,4-dichlorophenyl)-4-{4-[6-(hydroxymethyl)pyridin-3-yl]-2-oxo-2,3-dihydro-1H-1,3-benzodiazol-1-yl}piperidine-1-carboxamide], the half-maximal effective concentration (EC50) was 21 µM in the experiment with A498; 10 µM in the experiment with Daudi; 41 µM in the experiment on LCL#2; 21 µM with M059J; 20 µM in the experiment on Raji; 46 µM in the experiment on MEF Ogg1 (−/−). The EC50 in the experiment with CCL2 was 17 µM. Moreover, the midpoint of inhibition in the experiment with MLE12 cells, the IC50, lay at 7.18 µM.
For `O=C(Nc1ccc(I)cc1)N1CCC(n2c(=O)[nH]c3c(Br)cccc32)CC1` [Example 13, 4-(4-Bromo-2-oxo-2,3-dihydro-1H-1,3-benzodiazol-1-yl)-N-(4-iodophenyl)piperidine-1-carboxamide], the EC50 with A498 came to 29 µM; in the experiment on Daudi, 13 µM; in the experiment on LCL#2, 25 µM; in the experiment with M059J, 26 µM; in the experiment on Raji it was 25 µM; in the experiment with MEF Ogg1 (−/−) it was 48 µM. The EC50 with CCL2 worked out at 18.8 µM. In addition, the IC50 in the experiment with MLE12 cells was determined as 7.67 µM.

As a reminder, the EC50 is the concentration at which the effect is half-maximal. Broadly, the IC50 is the concentration that gives 50% inhibition. A high value points to lower potency.
